Patent US4039540A, “3-Substituted quinoxaline-2-carboxamide-1,4-dioxides” (Pfizer Inc., priority 1975, dated 1977)
Values after ≈ are worked out from the molar mass of the structure shown. Where two headings read alike, the source gives them in different places.

Legend:
Strep. pyogenes = experiment: in vivo activity in mice infected with a lethal inoculum of Strep. pyogenes; details: Streptococcus pyogenes, multiple dosing
Protocol: (§1) In determining the in vivo activity of the quinoxaline-1,4-dioxides of this invention, the test compound is administered to mice which have been infected by […] injection of a lethal inoculum of pathogenic bacteria. The test compound is administered using a multiple dosing regimen and using either the oral (PO) or the subcutaneous (SC) route. The inoculum of bacteria varies from about 1 to about 10 times the amount needed to kill 100% of the mice under the conditions of the test. At the end of the test, the activity of the compound is assessed by counting the number of survivors among the treated animals.
(§2) In vitro and in vivo activity of representative compounds of this invention, determined as aforesaid, are reported in the following tabulation for compounds of the formula: [drawing 12]

E. coli [1] = experiment: in vivo activity in mice infected with a lethal inoculum of E. coli; details: Escherichia coli, sc, subcutaneous, multiple dosing, read-out: IN VIVO E. coli, number of survivors among the treated animals
Protocol: as §1, §2

E. coli [2] = experiment: in vitro antibacterial activity, two-fold serial dilution in Brain-Heart Infusion Broth (MIC); format: cell-based; details: Escherichia coli, overnight, anaerobic
Protocol: (§3) The broth is inoculated with bacteria and with the test quinoxaline-1,4-dioxide and then it is incubated overnight under anerobic conditions. On the next day, the test is read visually. The minimum inhibitory concentration (MIC) of test compound is the lowest concentration which prevents turbidity, i.e., which prevents growth of the microorganism.
as §2

Strep. pyrogens = experiment: as above; format: cell-based; details: overnight, anaerobic
Protocol: as §3, §2

[3] = oral, read-out: IN VIVO Strep. pyogenes, number of survivors among the treated animals, PO (data in parenthesis)
[4] = sc, subcutaneous, read-out: IN VIVO Strep. pyogenes, number of survivors among the treated animals

With `CCN(CC)CCCS(=O)(=O)Cc1c(C(N)=O)[n+]([O-])c2ccccc2[n+]1[O-]` [NH2; SO2 (CH2)3 N(CH2 CH3)2; H] the responders at 50 mg/kg (Strep. pyogenes; [3]) was 50%, the responders at 50 mg/kg (Strep. pyogenes; [4]) was 90% and the responders at 25 mg/kg (E. coli [1]) was 80%. For the same compound, the MIC (E. coli [2]) was 6.25 mg/L (≈ 15.8 µM) and the MIC (Strep. pyrogens) was 3.12 mg/L (≈ 7.88 µM).
With `CN(C)CCNC(=O)c1c(CS(=O)(=O)CCCN2CCCCC2)[n+]([O-])c2ccccc2[n+]1[O-]` [NHCH2 CH2 N(CH3)2; drawing 21; H] the responders at 25 mg/kg (E. coli [1]) was 40%, the MIC (E. coli [2]) was 100 mg/L (≈ 209 µM) and the MIC (Strep. pyrogens) was 50 mg/L (≈ 104 µM).
Compound `O=C(NCCO)c1c(CS(=O)(=O)CCCN2CCCCC2)[n+]([O-])c2ccccc2[n+]1[O-]` [NHCH2 CH2 OH; drawing 22; H] has a responders at 50 mg/kg (Strep. pyogenes; [3]) of 20%, a responders at 50 mg/kg (Strep. pyogenes; [4]) of 100% and a responders at 25 mg/kg (E. coli [1]) of 20%. It also gave an MIC (E. coli [2]) of 25 mg/L (≈ 55.2 µM) and an MIC (Strep. pyrogens) of 50 mg/L (≈ 110 µM).
For `CCNC(=O)c1c(CS(=O)(=O)CCCCN(C)C)[n+]([O-])c2ccccc2[n+]1[O-]` [NHCH2 CH3; SO2 (CH2)4 N(CH3)2; H], the responders at 25 mg/kg (E. coli [1]) was 20%, the MIC (E. coli [2]) was 50 mg/L (≈ 122 µM) and the MIC (Strep. pyrogens) was 12.5 mg/L (≈ 30.5 µM).
`CCCCNC(=O)c1c(CS(=O)(=O)CCCN(C)C)[n+]([O-])c2ccccc2[n+]1[O-]` [NH(CH2)3 CH3; SO2 (CH2)3 N(CH3)2; H] was tested, and the responders at 50 mg/kg (Strep. pyogenes; [3]) was 80%, the responders at 50 mg/kg (Strep. pyogenes; [4]) was 100% and the responders at 25 mg/kg (E. coli [1]) was 50%. It also gave an MIC (E. coli [2]) of 25 mg/L (≈ 58.9 µM) and an MIC (Strep. pyrogens) of 25 mg/L (≈ 58.9 µM).
In the case of `O=C(NCCCO)c1c(CSCCO)[n+]([O-])c2ccccc2[n+]1[O-]` [NHCH2 CH2 CH2 OH; SCH2 CH2 OH; H], the responders at 50 mg/kg (Strep. pyogenes; [3]) was 30%, the responders at 50 mg/kg (Strep. pyogenes; [4]) was 10% and the responders at 25 mg/kg (E. coli [1]) was 20%. The MIC (E. coli [2]) was 50 mg/L (≈ 141 µM) and the MIC (Strep. pyrogens) was 25 mg/L (≈ 70.7 µM).
With `O=C(NCCO)c1c(CS(=O)(=O)CCO)[n+]([O-])c2ccccc2[n+]1[O-]` [NHCH2 CH2 OH; SO2 CH2 CH2 OH; H] the responders at 50 mg/kg (Strep. pyogenes; [3]) was 10%, the responders at 50 mg/kg (Strep. pyogenes; [4]) was 30% and the responders at 25 mg/kg (E. coli [1]) was 10%. It also gave an MIC (E. coli [2]) of 100 mg/L (≈ 269 µM) and an MIC (Strep. pyrogens) of 25 mg/L (≈ 67.3 µM).
`CN(C)CCCS(=O)(=O)Cc1c(C(=O)NCCO)[n+]([O-])c2ccccc2[n+]1[O-]` [NHCH2 CH2 OH; SO2 (CH2)3 N(CH3)2; H] gave a responders at 50 mg/kg (Strep. pyogenes; [3]) of 0%, a responders at 50 mg/kg (Strep. pyogenes; [4]) of 60% and a responders at 25 mg/kg (E. coli [1]) of 0%. It also gave an MIC (E. coli [2]) of 50 mg/L (≈ 121 µM) and an MIC (Strep. pyrogens) of 50 mg/L (≈ 121 µM).
Work on `O=C(NCC(O)CO)c1c(CS(=O)(=O)CCO)[n+]([O-])c2ccccc2[n+]1[O-]` (stereo not drawn) [NHCH2 CHOHCH2 OH; SO2 CH2 CH2 OH; H] yielded a responders at 50 mg/kg (Strep. pyogenes; [3]) of 70%, a responders at 50 mg/kg (Strep. pyogenes; [4]) of 40% and a responders at 25 mg/kg (E. coli [1]) of 0%. The MIC (E. coli [2]) was 200 mg/L (≈ 498 µM) and the MIC (Strep. pyrogens) was 6.25 mg/L (≈ 15.6 µM).
For `CN(C)C(=O)c1c(CS(=O)(=O)CCCN2CCOCC2)[n+]([O-])c2ccccc2[n+]1[O-]` [N(CH3)2; drawing 19; H], the responders at 50 mg/kg (Strep. pyogenes; [3]) was 10%, the responders at 50 mg/kg (Strep. pyogenes; [4]) was 0% and the responders at 25 mg/kg (E. coli [1]) was 20%. It also gave an MIC (E. coli [2]) of 25 mg/L (≈ 57 µM) and an MIC (Strep. pyrogens) of 25 mg/L (≈ 57 µM).
Compound `CCC(CO)NC(=O)c1c(CS(=O)(=O)CCO)[n+]([O-])c2ccccc2[n+]1[O-]` (stereo not drawn) [NHCHEtCH2 OH; SO2 CH2 CH2 OH; H] has a responders at 50 mg/kg (Strep. pyogenes; [3]) of 80%, a responders at 50 mg/kg (Strep. pyogenes; [4]) of 0% and a responders at 25 mg/kg (E. coli [1]) of 10%. The MIC (E. coli [2]) was 200 mg/L (≈ 501 µM) and the MIC (Strep. pyrogens) was 3.12 mg/L (≈ 7.82 µM).
For `COCCNC(=O)c1c(CS(=O)(=O)CCO)[n+]([O-])c2ccccc2[n+]1[O-]` [NHCH2 CH2 OCH3; SO2 CH2 CH2 OH; H], the responders at 50 mg/kg (Strep. pyogenes; [3]) was 0%, the responders at 50 mg/kg (Strep. pyogenes; [4]) was 40% and the responders at 25 mg/kg (E. coli [1]) was 0%. The MIC (E. coli [2]) was 12.5 mg/L (≈ 32.4 µM) and the MIC (Strep. pyrogens) was 0.781 mg/L (≈ 2.03 µM).
In the case of `CCNC(=O)c1c(CS(=O)(=O)CCCN2CCOCC2)[n+]([O-])c2ccccc2[n+]1[O-]` [NHCH2 CH3; drawing 17; H], the responders at 50 mg/kg (Strep. pyogenes; [3]) was 80%, the responders at 50 mg/kg (Strep. pyogenes; [4]) was 100% and the responders at 25 mg/kg (E. coli [1]) was 60%. It also gave an MIC (E. coli [2]) of 25 mg/L (≈ 57 µM) and an MIC (Strep. pyrogens) of 12.5 mg/L (≈ 28.5 µM).
`CCNC(=O)c1c(CS(=O)(=O)CCCN2CCCCC2)[n+]([O-])c2ccccc2[n+]1[O-]` [NHCH2 CH3; drawing 26; H] gave a responders at 50 mg/kg (Strep. pyogenes; [3]) of 90%, a responders at 50 mg/kg (Strep. pyogenes; [4]) of 100% and a responders at 25 mg/kg (E. coli [1]) of 60%. It also gave an MIC (E. coli [2]) of 12.5 mg/L (≈ 28.6 µM) and an MIC (Strep. pyrogens) of 3.12 mg/L (≈ 7.16 µM).
With `CCNC(=O)c1c(CS(=O)(=O)CCCN2CCCC2)[n+]([O-])c2ccccc2[n+]1[O-]` [NHCH2 CH3; drawing 16; H] the responders at 25 mg/kg (E. coli [1]) was 60%, the MIC (E. coli [2]) was 50 mg/L (≈ 118 µM) and the MIC (Strep. pyrogens) was 12.5 mg/L (≈ 29.6 µM).
Compound `CNC(=O)c1c(CS(=O)(=O)CCCCN(C)C)[n+]([O-])c2ccccc2[n+]1[O-]` [NHCH3; SO2 (CH2)4 N(CH3)2; H] has a responders at 25 mg/kg (E. coli [1]) of 40%, an MIC (E. coli [2]) of 50 mg/L (≈ 126 µM) and an MIC (Strep. pyrogens) of 50 mg/L (≈ 126 µM).
`CNC(=O)c1c(CS(=O)(=O)CCCN2CCCC2)[n+]([O-])c2ccccc2[n+]1[O-]` [NHCH3; drawing 13; H] gave a responders at 25 mg/kg (E. coli [1]) of 80%, an MIC (E. coli [2]) of 6.25 mg/L (≈ 15.3 µM) and an MIC (Strep. pyrogens) of 3.12 mg/L (≈ 7.65 µM).
